ChEMBL document CHEMBL1139555, “Discovery of potent and selective phenylalanine based dipeptidyl peptidase IV inhibitors” (Bioorg Med Chem Lett, 2005)

What was measured:
Dipeptidyl peptidase 9 = Dipeptidyl peptidase 9 (Homo sapiens, UniProt Q86TI2)
Dipeptidyl peptidase 2 = Dipeptidyl peptidase 2 (Homo sapiens, UniProt Q9UHL4)
Dipeptidyl peptidase 4 = Dipeptidyl peptidase 4 (Homo sapiens, UniProt P27487)
Dipeptidyl peptidase 8 = Dipeptidyl peptidase 8 (Homo sapiens, UniProt Q6V1X1)
Sequence of Dipeptidyl peptidase 8 (Q6V1X1 whole entry): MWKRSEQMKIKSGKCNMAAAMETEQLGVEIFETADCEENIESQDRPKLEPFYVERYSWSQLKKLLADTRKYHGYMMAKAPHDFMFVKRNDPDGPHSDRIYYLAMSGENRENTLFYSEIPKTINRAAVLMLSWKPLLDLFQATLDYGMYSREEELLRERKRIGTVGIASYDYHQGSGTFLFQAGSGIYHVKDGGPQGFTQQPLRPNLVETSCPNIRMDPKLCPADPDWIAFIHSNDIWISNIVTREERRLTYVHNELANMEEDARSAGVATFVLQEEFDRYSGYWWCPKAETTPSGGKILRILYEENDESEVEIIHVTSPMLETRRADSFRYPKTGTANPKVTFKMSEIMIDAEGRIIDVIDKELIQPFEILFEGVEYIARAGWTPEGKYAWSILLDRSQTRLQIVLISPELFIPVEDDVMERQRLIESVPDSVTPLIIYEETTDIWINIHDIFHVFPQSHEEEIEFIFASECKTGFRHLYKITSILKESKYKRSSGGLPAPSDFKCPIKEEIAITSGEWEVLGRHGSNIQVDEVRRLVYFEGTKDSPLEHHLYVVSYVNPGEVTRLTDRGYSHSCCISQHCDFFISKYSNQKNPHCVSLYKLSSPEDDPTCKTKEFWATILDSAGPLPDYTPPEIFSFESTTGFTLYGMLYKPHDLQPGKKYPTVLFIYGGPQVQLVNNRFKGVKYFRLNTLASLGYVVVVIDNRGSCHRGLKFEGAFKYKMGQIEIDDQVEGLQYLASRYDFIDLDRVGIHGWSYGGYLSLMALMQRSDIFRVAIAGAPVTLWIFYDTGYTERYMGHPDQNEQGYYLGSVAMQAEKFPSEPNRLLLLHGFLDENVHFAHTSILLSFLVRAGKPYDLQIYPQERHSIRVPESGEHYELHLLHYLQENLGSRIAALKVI

Sequence of Dipeptidyl peptidase 9 (Q86TI2 whole entry): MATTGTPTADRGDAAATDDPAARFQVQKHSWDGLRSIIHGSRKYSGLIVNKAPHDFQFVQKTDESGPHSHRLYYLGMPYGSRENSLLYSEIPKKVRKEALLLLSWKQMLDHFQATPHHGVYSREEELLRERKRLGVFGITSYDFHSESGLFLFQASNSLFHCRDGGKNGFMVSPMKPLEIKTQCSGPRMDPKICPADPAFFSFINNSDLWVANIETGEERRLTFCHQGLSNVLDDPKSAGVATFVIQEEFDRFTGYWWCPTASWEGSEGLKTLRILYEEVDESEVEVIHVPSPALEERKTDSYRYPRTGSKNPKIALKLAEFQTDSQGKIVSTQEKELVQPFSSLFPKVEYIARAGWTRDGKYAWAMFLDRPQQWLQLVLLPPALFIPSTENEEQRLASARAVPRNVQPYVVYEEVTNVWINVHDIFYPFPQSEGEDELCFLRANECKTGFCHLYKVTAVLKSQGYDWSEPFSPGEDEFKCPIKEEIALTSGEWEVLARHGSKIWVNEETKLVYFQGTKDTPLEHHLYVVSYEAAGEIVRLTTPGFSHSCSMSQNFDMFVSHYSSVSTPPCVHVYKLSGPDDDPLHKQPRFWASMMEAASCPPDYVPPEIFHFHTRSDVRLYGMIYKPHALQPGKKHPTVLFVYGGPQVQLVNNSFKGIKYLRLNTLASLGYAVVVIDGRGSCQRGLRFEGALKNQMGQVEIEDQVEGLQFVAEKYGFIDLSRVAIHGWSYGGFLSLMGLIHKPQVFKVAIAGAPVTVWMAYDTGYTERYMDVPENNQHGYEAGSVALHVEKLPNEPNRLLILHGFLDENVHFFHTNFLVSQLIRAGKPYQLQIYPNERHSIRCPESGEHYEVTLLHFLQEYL
Sequence of Dipeptidyl peptidase 4 (P27487 whole entry): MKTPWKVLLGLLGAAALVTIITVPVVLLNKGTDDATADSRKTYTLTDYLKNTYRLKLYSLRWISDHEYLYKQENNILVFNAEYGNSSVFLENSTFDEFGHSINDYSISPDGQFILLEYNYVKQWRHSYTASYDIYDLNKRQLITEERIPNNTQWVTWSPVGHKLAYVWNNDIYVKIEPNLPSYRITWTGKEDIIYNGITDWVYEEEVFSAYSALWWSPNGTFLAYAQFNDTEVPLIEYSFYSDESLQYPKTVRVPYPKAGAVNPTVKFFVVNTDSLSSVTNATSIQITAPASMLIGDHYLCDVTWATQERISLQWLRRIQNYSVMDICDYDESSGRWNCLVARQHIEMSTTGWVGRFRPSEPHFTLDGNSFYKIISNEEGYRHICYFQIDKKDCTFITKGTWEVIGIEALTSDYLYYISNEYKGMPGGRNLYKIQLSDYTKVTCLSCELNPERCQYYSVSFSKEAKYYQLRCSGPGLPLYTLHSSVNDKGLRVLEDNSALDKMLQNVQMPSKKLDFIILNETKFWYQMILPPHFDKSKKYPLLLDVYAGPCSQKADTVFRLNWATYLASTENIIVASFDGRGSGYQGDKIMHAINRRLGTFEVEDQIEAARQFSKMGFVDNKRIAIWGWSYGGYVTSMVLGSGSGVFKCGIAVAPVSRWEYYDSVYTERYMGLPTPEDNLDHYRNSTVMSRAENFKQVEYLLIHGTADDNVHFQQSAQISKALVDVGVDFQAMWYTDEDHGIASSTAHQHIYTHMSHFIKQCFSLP

Q: Which IC50 (Dipeptidyl peptidase 9) does the source give for `Cc1ccc(-c2ccc([C@H](C)[C@H](N)C(=O)N3CC[C@H](F)C3)cc2)cc1` here?
A: > 100 µM

Q: What about the IC50 (Dipeptidyl peptidase 2) of the same molecule?
A: 1100 nM

Q: What about the IC50 (Dipeptidyl peptidase 4) of the same molecule?
A: 390 nM

Q: For `C[C@@H](c1ccc(-c2cc(F)cc(F)c2)cc1)[C@H](N)C(=O)N1CC[C@H](F)C1`, which IC50 (Dipeptidyl peptidase 2) is on record?
A: 2000 nM

Q: And the IC50 (Dipeptidyl peptidase 4)?
A: 240 nM

Q: Which results are given for `C[C@@H](c1ccc(-c2ccccc2)cc1)[C@H](N)C(=O)N1CC[C@H](F)C1`?
A: IC50 (Dipeptidyl peptidase 9): > 100 µM; IC50 (Dipeptidyl peptidase 2): 3000 nM; IC50 (Dipeptidyl peptidase 4): 120 nM

Q: Which IC50 (Dipeptidyl peptidase 8) does the source give for `C[C@@H](c1ccc(-c2cccc(NS(=O)(=O)C(F)(F)F)c2)cc1)[C@H](N)C(=O)N1CC[C@H](F)C1` here?
A: > 100 µM

Q: What about the IC50 (Dipeptidyl peptidase 2) of the same molecule?
A: 1300 nM

Q: What about the IC50 (Dipeptidyl peptidase 4) of the same molecule?
A: 27 nM

Q: `CSc1ccc([C@H](C)[C@H](N)C(=O)N2CC[C@H](F)C2)cc1` was tested. Which IC50 (Dipeptidyl peptidase 2) did it give?
A: 5900 nM

Q: And the IC50 (Dipeptidyl peptidase 4)?
A: 360 nM

Q: For `C[C@@H](c1ccc(-c2cccc(C(N)=O)c2)cc1)[C@H](N)C(=O)N1CC[C@H](F)C1`, which IC50 (Dipeptidyl peptidase 2) is on record?
A: 820 nM

Q: What does the source list for `C[C@@H](c1ccc(-c2cncnc2)cc1)[C@H](N)C(=O)N1CC[C@H](F)C1`?
A: IC50 (Dipeptidyl peptidase 9): > 100 µM; IC50 (Dipeptidyl peptidase 2): 10000 nM; IC50 (Dipeptidyl peptidase 4): 580 nM

Q: Which results are given for `C[C@@H](c1ccc(-c2ccc(C(F)(F)F)cc2)cc1)[C@H](N)C(=O)N1CC[C@H](F)C1`?
A: IC50 (Dipeptidyl peptidase 9): > 100 µM; IC50 (Dipeptidyl peptidase 2): 670 nM; IC50 (Dipeptidyl peptidase 4): 510 nM

Q: Which results are given for `C[C@@H](c1ccccc1)[C@H](N)C(=O)N1CCSC1`?
A: IC50 (Dipeptidyl peptidase 9): > 100 µM; IC50 (Dipeptidyl peptidase 8): > 100 µM; IC50 (Dipeptidyl peptidase 4): 968 nM

Q: Which IC50 (Dipeptidyl peptidase 2) does the source give for `C[C@@H](c1ccc(-c2ccc(F)c(F)c2)cc1)[C@H](N)C(=O)N1CC[C@H](F)C1` here?
A: 2000 nM

Q: What about the IC50 (Dipeptidyl peptidase 4) of the same molecule?
A: 60 nM

Q: With `COc1ccc(-c2ccc([C@H](C)[C@H](N)C(=O)N3CC[C@H](F)C3)cc2)cc1` as the molecule, how does the IC50 (Dipeptidyl peptidase 9) read?
A: > 100 µM

Q: And the IC50 (Dipeptidyl peptidase 2)?
A: 330 nM

Q: What about the IC50 (Dipeptidyl peptidase 4) of the same molecule?
A: 130 nM

Q: Which results are given for `C[C@@H](c1ccc(-c2cccc(-n3cnnn3)c2)cc1)[C@H](N)C(=O)N1CC[C@H](F)C1`?
A: IC50 (Dipeptidyl peptidase 9): > 100 µM; IC50 (Dipeptidyl peptidase 2): 870 nM; IC50 (Dipeptidyl peptidase 4): 140 nM

Q: With `C[C@@H](c1ccc(F)cc1Cl)[C@H](N)C(=O)N1CC[C@H](F)C1` as the molecule, how does the IC50 (Dipeptidyl peptidase 9) read?
A: > 100 µM

Q: And the IC50 (Dipeptidyl peptidase 8)?
A: > 100 µM

Q: What about the IC50 (Dipeptidyl peptidase 2) of the same molecule?
A: 46000 nM

Q: And the IC50 (Dipeptidyl peptidase 4)?
A: 4200 nM

Q: Which IC50 (Dipeptidyl peptidase 2) does the source give for `C[C@@H](c1ccc(-c2cccc(-c3n[nH]c(O)n3)c2)cc1)[C@H](N)C(=O)N1CC[C@H](F)C1` here?
A: 1100 nM

Q: What about the IC50 (Dipeptidyl peptidase 4) of the same molecule?
A: 95 nM

Q: `C[C@@H](c1ccc(-c2cc(F)ccc2F)cc1)[C@H](N)C(=O)N1CC[C@H](F)C1` was tested. Which IC50 (Dipeptidyl peptidase 9) did it give?
A: > 100 µM

Q: What about the IC50 (Dipeptidyl peptidase 8) of the same molecule?
A: > 100 µM

Q: What about the IC50 (Dipeptidyl peptidase 2) of the same molecule?
A: 1300 nM

Q: `C[C@@H](c1ccccc1)[C@H](N)C(=O)N1CC[C@H](F)C1` was tested. Which IC50 (Dipeptidyl peptidase 9) did it give?
A: > 100 µM

Q: And the IC50 (Dipeptidyl peptidase 8)?
A: > 100 µM

Q: What about the IC50 (Dipeptidyl peptidase 2) of the same molecule?
A: 59000 nM

Q: What about the IC50 (Dipeptidyl peptidase 4) of the same molecule?
A: 1400 nM

Q: How did the IC50 (Dipeptidyl peptidase 9) turn out when `C[C@@H](c1ccccc1F)[C@H](N)C(=O)N1CC[C@H](F)C1` was run?
A: > 100 µM

Q: And the IC50 (Dipeptidyl peptidase 8)?
A: > 100 µM

Q: What about the IC50 (Dipeptidyl peptidase 2) of the same molecule?
A: 19000 nM

Q: And the IC50 (Dipeptidyl peptidase 4)?
A: 1100 nM

Q: Which results are given for `C[C@@H](c1ccc(-c2cccc(-c3c[nH]c(O)n3)c2)cc1)[C@H](N)C(=O)N1CC[C@H](F)C1`?
A: IC50 (Dipeptidyl peptidase 2): 830 nM; IC50 (Dipeptidyl peptidase 4): 110 nM

Q: `C[C@@H](c1ccc(F)c(Cl)c1)[C@H](N)C(=O)N1CC[C@H](F)C1` was tested. Which IC50 (Dipeptidyl peptidase 2) did it give?
A: 5200 nM

Q: What about the IC50 (Dipeptidyl peptidase 4) of the same molecule?
A: 2800 nM

Q: How did the IC50 (Dipeptidyl peptidase 8) turn out when `C[C@@H](c1ccc(F)cc1)[C@H](N)C(=O)N1CC[C@H](F)C1` was run?
A: > 100 µM

Q: What about the IC50 (Dipeptidyl peptidase 2) of the same molecule?
A: 23000 nM

Q: For `C[C@@H](c1ccc(-c2cccc(S(C)(=O)=O)c2)cc1)[C@H](N)C(=O)N1CC[C@H](F)C1`, which IC50 (Dipeptidyl peptidase 2) is on record?
A: 2900 nM

Q: What about the IC50 (Dipeptidyl peptidase 4) of the same molecule?
A: 110 nM

Q: For `C[C@@H](c1ccc(F)c(F)c1)[C@H](N)C(=O)N1CC[C@H](F)C1`, which IC50 (Dipeptidyl peptidase 8) is on record?
A: > 100 µM

Q: And the IC50 (Dipeptidyl peptidase 2)?
A: 11000 nM

Q: What about the IC50 (Dipeptidyl peptidase 4) of the same molecule?
A: 1100 nM

Q: With `C[C@@H](c1ccc(-c2cccc(-c3noc(C4CC4)n3)c2)cc1)[C@H](N)C(=O)N1CC[C@H](F)C1` as the molecule, how does the IC50 (Dipeptidyl peptidase 9) read?
A: > 100 µM

Q: And the IC50 (Dipeptidyl peptidase 2)?
A: 96 nM

Q: And the IC50 (Dipeptidyl peptidase 4)?
A: 140 nM

Q: For `C[C@@H](c1ccc(Cl)cc1F)[C@H](N)C(=O)N1CC[C@H](F)C1`, which IC50 (Dipeptidyl peptidase 9) is on record?
A: > 100 µM

Q: And the IC50 (Dipeptidyl peptidase 8)?
A: > 100 µM

Q: What about the IC50 (Dipeptidyl peptidase 2) of the same molecule?
A: 5600 nM

Q: What about the IC50 (Dipeptidyl peptidase 4) of the same molecule?
A: 480 nM

Q: Which results are given for `Cc1ccccc1-c1ccc([C@H](C)[C@H](N)C(=O)N2CC[C@H](F)C2)cc1`?
A: IC50 (Dipeptidyl peptidase 9): > 100 µM; IC50 (Dipeptidyl peptidase 8): > 100 µM; IC50 (Dipeptidyl peptidase 2): 2500 nM

Q: Which results are given for `C[C@@H](c1ccc(C(=O)[n+]2ccc[nH]2)cc1)[C@H](N)C(=O)N1CC[C@H](F)C1`?
A: IC50 (Dipeptidyl peptidase 9): > 100 µM; IC50 (Dipeptidyl peptidase 2): 1500 nM; IC50 (Dipeptidyl peptidase 4): 1700 nM
